Results from US9914750B2, “Synthetic peptides and peptide mimetics” (University of Louisville Research Foundation, priority 2007, dated 2018).
“Also recorded” adds a separate entry of the source. No end group written: not given here.

Experiments:
[1] = tested on: RAW 264.7 cells; experiment: Assay for inflammation: TNFα secretion with peptides alone (ELISA); format: cell-based, mouse
Experimental: FIGS. 15A and 15B. FIG. 15A. Inhibition of endotoxin-stimulated TNFα secretion. RAW 264.7 macrophage cells were stimulated with 100 ng/ml LPS in the presence or absence of the PSP-derived peptides GK7, KL11 or GL13 (200 μg/ml). Polymyxin B (PMX) was used as a positive control. Further controls consisted of peptides alone without LPS stimulation. TNFα secretion was analyzed by ELISA of the RAW culture medium. The data are from triplicate RAW culture dishes for each condition. *) different from LPS alone P<0.03, **) P<0.0002. FIG. 15B. Dose response curve for the inhibition of LPS-induced TNFα secretion by GL-13.
To determine if the PSP peptides cause an inflammatory response in RAW 264.7 cells, the cells were incubated with each peptide for 24 h and TNFα secretion was quantitated by ELISA.
The vaccine adjuvant monophosphoryl lipid A (MPLA) a low-toxicity derivative of LPS was used to stimulate RAW cells in the presence or absence of PSP peptides (200 μg/ml) or the anti-inflammatory peptide polymyxin B (PMX). Control samples were incubated with the peptides alone.

[2] = tested on: RAW 264.7 cells; experiment: Cell death assay, trypan blue; format: cell-based, mouse; details: 200 μg/ml, 24 h
Experimental: FIG. 21: RAW Cell Viability. RAW 264.7 cells were incubated with 200 μg/ml of PSP peptides for 24 h. At the end of the incubation period the cells were stained with trypan blue and photographed in the light microscope. No significant cell death was detected with any of the peptides.
The inventors have used three different assays for analysis of cytotoxicity in mammalian cells: trypan blue exclusion, […], and ATP production. Experiments have been performed with rat pituitary GH4C1 cells and mouse RAW 264.7 cells. The cells were incubated with PSP peptides for 24 h followed by staining with trypan blue to identify permeabilized and dead cells. […] Clear cytotoxicity was noted when the cells were incubated with LPS.
RAW 264.7 cells were incubated with 200 μg/ml of PSP peptides for 24 h. At the end of the incubation period the cells were stained with trypan blue and photographed in the light microscope. No significant cell death was detected with any of the peptides (FIG. 21).

[3] = preliminary results; mice I.P. injection
[4] = tested on: C57BL/6 mice; experiment: LPS sepsis model, D-galactosamine sensitized mice; format: in vivo
Experimental: FIG. 18. GL-13 Protects Mice in an LPS Sepsis Model. C57BL/6 mice were sensitized with D-galactosamine and injected with 100 ng/mouse (50 μg/kg) of P. aeruginosa LPS that had been preincubated for 1 h RT with or without 100 μg/mouse of GL-13. Controls received LPS and 0.9% saline. […] The results are from two independent experiments.
C57BL/6 mice were sensitized with D-galactosamine and injected with 100 ng/mouse (50 μg/kg) of P. aeruginosa LPS that had been preincubated for 1 h RT with or without 100 μg/mouse of GL-13 (FIG. 18). Controls received LPS and 0.9% saline. […] The results are from two independent experiments.

[5] = tested on: sheep red blood cells; experiment: Hemagglutination assay; format: cell-based; details: PBS, absence of serum, 2 h
Experimental: FIG. 22: Hemagglutination of sheep red blood cells. RBCs were washed in PBS and incubated for 2 h in microtiter plates in PBS±5% fetal calf serum. Peptide concentrations were 83 μg/ml. The microtiter plate was imaged. Agglutinated red blood cells form a wide mat of cells, while non-agglutinated cells form a button shaped pellet.
Briefly, unmodified sheep erythrocytes (Cappel, M P Biomedicals, Irvine, Calif.) were washed in PBS and suspended at 1% in PBS. Diluted erythrocytes and 20 μg/ml of each peptide in PBS were mixed in polypropylene microtiter plates (120 μl per well) and incubated for 2 h at 35° C. The plates were imaged on a Kodak Image station.

GQIINLKASLDLL-NH2 [GL13-NH2, GQIINLKASLDLL-(CONH2)]
TNFα secretion with peptide alone [1]: did not stimulate TNFα secretion
cell death of RAW 264.7 macrophages, trypan blue [2]: did not stimulate TNFα secretion or cause macrophage cell death; also recorded: did not cause cell death; also recorded: not cytotoxic to macrophages
toxicity [3]: low toxicity
lethality after intra-peritoneal injection [4]: did not cause lethality
hemagglutination (words) [5]: caused passive hemagglutination
hemagglutination (words) ([5]; listed as GL-13-NH2): caused hemagglutination
